Results taken from ChEMBL document CHEMBL4507281, “Data for DCP probe BI-4394” (2021).

Key:
[1] = molecular target: Cyclin-dependent kinase 9 (Homo sapiens) (UniProt P50750); settings: Compound concentration 100.0 nM
[2] = molecular target: Ephrin type-B receptor 1 (Homo sapiens) (UniProt P54762); settings: Compound concentration 100.0 nM
[3] = molecular target: Fibroblast growth factor receptor 3 (Homo sapiens) (UniProt P22607); settings: Compound concentration 100.0 nM
[4] = molecular target: Cyclin-dependent kinase 14 (Homo sapiens) (UniProt O94921); settings: Compound concentration 100.0 nM
[5] = molecular target: Serine/threonine-protein kinase 32C (Homo sapiens) (UniProt Q86UX6); settings: Compound concentration 100.0 nM
[6] = molecular target: Receptor-interacting serine/threonine-protein kinase 2 (Homo sapiens) (UniProt O43353); settings: Compound concentration 100.0 nM
[7] = molecular target: 5-hydroxytryptamine receptor 1B (Homo sapiens) (UniProt P28222); settings: Compound concentration 10.0 uM
[8] = molecular target: Homeodomain-interacting protein kinase 1 (Homo sapiens) (UniProt Q86Z02); settings: Compound concentration 100.0 nM
[9] = molecular target: Ephrin type-A receptor 3 (Homo sapiens) (UniProt P29320); settings: Compound concentration 100.0 nM
[10] = test system: Epidermal growth factor receptor (Homo sapiens), P00533 [UNDEFINED MUTATION]; settings: Compound concentration 100.0 nM
[11] = molecular target: Cyclin-dependent kinase 7 (Homo sapiens) (UniProt P50613); settings: Compound concentration 100.0 nM
[12] = molecular target: Serine/threonine-protein kinase WNK4 (Homo sapiens) (UniProt Q96J92); settings: Compound concentration 100.0 nM
[13] = molecular target: Glycogen synthase kinase-3 beta (Homo sapiens) (UniProt P49841); settings: Compound concentration 100.0 nM
[14] = test system: Receptor-type tyrosine-protein kinase FLT3 (Homo sapiens), P36888 [R834Q]; settings: Compound concentration 100.0 nM
[15] = molecular target: Serine/threonine-protein kinase NLK (Homo sapiens) (UniProt Q9UBE8); settings: Compound concentration 100.0 nM
[16] = molecular target: Protein-tyrosine kinase 2-beta (Homo sapiens) (UniProt Q14289); settings: Compound concentration 100.0 nM
[17] = test system: Proto-oncogene tyrosine-protein kinase receptor Ret (Homo sapiens), P07949 [V804M]; settings: Compound concentration 100.0 nM
[18] = molecular target: Serine/threonine-protein kinase NIM1 (Homo sapiens) (UniProt Q8IY84); settings: Compound concentration 100.0 nM
[19] = molecular target: Calcium/calmodulin-dependent protein kinase type 1D (Homo sapiens) (UniProt Q8IU85); settings: Compound concentration 100.0 nM
[20] = molecular target: Dual specificity mitogen-activated protein kinase kinase 6 (Homo sapiens) (UniProt P52564); settings: Compound concentration 100.0 nM
[21] = molecular target: Serine/threonine-protein kinase ICK (Homo sapiens) (UniProt Q9UPZ9); settings: Compound concentration 100.0 nM
[22] = molecular target: Serine/threonine-protein kinase 32B (Homo sapiens) (UniProt Q9NY57); settings: Compound concentration 100.0 nM
[23] = test system: Phosphatidylinositol 4,5-bisphosphate 3-kinase catalytic subunit alpha isoform (Homo sapiens), P42336 [E545A]; settings: Compound concentration 100.0 nM
[24] = molecular target: 5'-AMP-activated protein kinase catalytic subunit alpha-1 (Homo sapiens) (UniProt Q13131); settings: Compound concentration 100.0 nM
[25] = molecular target: Receptor-interacting serine/threonine-protein kinase 4 (Homo sapiens) (UniProt P57078); settings: Compound concentration 100.0 nM
[26] = molecular target: Serine/threonine-protein kinase TAO3 (Homo sapiens) (UniProt Q9H2K8); settings: Compound concentration 100.0 nM
[27] = test system: Phosphatidylinositol 4,5-bisphosphate 3-kinase catalytic subunit alpha isoform (Homo sapiens), P42336 [Q546K]; settings: Compound concentration 100.0 nM
[28] = molecular target: Mitogen-activated protein kinase kinase kinase 9 (Homo sapiens) (UniProt P80192); settings: Compound concentration 100.0 nM
[29] = molecular target: Cyclin-dependent kinase 8 (Homo sapiens) (UniProt P49336); settings: Compound concentration 100.0 nM
[30] = molecular target: Mitogen-activated protein kinase 11 (Homo sapiens) (UniProt Q15759); settings: Compound concentration 100.0 nM
[31] = molecular target: Wee1-like protein kinase (Homo sapiens) (UniProt P30291); settings: Compound concentration 100.0 nM
[32] = molecular target: Citron Rho-interacting kinase (Homo sapiens) (UniProt O14578); settings: Compound concentration 100.0 nM
[33] = test system: Epidermal growth factor receptor (Homo sapiens), P00533 [T790M]; settings: Compound concentration 100.0 nM
[34] = molecular target: 5-hydroxytryptamine receptor 1E (Homo sapiens) (UniProt P28566); settings: Compound concentration 10.0 uM
[35] = molecular target: Activin receptor type-2B (Homo sapiens) (UniProt Q13705); settings: Compound concentration 100.0 nM
[36] = test system: Mast/stem cell growth factor receptor Kit (Homo sapiens), P10721 [V559D]; settings: Compound concentration 100.0 nM
[37] = molecular target: Tyrosine-protein kinase JAK1 (Homo sapiens) (UniProt P23458); settings: Compound concentration 100.0 nM
[38] = molecular target: Calcium-dependent protein kinase 1 (Plasmodium falciparum) (UniProt P62344); settings: Compound concentration 100.0 nM
[39] = molecular target: Histamine H3 receptor (Homo sapiens) (UniProt Q9Y5N1); settings: Compound concentration 10.0 uM

Mitogen-activated protein kinase 11 (Homo sapiens), sequence (Q15759 whole entry): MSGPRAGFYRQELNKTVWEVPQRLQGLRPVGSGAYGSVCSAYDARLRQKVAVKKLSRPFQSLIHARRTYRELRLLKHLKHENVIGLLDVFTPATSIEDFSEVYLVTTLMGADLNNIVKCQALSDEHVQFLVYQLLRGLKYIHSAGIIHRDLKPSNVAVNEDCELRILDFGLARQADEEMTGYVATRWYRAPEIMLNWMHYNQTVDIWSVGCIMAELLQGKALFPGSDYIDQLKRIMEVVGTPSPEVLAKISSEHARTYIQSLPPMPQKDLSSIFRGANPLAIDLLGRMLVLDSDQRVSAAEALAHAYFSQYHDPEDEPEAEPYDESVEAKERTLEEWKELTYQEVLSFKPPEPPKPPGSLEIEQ
Proto-oncogene tyrosine-protein kinase receptor Ret (Homo sapiens), P07949 [V804M], sequence (P07949 whole entry V804M): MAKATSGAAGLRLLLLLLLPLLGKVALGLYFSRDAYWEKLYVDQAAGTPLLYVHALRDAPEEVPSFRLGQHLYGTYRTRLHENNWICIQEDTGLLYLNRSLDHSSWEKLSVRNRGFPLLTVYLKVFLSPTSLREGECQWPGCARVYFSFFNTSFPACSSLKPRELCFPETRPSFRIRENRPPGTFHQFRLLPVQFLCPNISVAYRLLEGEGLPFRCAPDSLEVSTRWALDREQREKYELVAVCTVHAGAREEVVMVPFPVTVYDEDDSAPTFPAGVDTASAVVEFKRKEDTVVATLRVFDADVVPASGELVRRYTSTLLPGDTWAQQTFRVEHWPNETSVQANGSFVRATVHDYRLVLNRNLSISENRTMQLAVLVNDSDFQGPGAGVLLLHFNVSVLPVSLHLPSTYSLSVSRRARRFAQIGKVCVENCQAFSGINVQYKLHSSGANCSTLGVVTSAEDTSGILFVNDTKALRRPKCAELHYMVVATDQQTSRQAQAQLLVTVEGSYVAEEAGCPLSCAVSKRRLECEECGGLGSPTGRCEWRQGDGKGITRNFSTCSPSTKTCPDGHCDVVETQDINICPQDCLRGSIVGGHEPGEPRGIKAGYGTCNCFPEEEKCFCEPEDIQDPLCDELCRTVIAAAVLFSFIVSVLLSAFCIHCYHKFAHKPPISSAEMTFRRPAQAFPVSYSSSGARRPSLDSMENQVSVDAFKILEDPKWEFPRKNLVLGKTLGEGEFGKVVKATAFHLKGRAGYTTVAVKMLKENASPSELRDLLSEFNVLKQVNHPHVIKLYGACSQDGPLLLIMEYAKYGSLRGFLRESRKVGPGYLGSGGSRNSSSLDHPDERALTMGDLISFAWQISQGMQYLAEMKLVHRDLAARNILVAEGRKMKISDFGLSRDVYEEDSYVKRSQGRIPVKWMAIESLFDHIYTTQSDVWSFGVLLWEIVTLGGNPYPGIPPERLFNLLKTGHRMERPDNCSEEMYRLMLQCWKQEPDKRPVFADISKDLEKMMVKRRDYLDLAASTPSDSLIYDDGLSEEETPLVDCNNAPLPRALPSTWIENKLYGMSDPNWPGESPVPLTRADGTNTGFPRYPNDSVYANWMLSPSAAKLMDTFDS
Fibroblast growth factor receptor 3 (Homo sapiens), sequence (P22607 23-806 limits assumed): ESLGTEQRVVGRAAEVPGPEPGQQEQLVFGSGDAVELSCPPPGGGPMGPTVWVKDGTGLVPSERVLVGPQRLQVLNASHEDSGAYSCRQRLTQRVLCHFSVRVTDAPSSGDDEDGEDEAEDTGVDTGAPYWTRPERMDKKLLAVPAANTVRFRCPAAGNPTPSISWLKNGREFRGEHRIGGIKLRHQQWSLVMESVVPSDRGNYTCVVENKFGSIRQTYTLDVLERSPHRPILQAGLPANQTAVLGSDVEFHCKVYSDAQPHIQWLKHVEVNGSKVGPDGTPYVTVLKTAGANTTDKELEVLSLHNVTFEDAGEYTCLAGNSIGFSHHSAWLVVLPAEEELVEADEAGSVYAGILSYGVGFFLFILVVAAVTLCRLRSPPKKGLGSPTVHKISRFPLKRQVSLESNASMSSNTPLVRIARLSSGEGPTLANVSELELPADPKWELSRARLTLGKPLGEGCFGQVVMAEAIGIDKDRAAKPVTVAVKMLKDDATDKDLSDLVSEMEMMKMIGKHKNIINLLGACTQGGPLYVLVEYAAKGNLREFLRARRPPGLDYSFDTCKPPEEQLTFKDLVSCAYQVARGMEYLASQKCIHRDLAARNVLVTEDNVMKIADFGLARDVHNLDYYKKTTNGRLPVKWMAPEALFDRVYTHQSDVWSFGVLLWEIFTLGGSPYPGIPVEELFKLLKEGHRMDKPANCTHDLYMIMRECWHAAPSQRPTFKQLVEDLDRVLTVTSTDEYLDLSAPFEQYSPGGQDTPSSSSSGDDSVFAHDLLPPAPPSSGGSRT
Wee1-like protein kinase (Homo sapiens), sequence (P30291 whole entry, looked up): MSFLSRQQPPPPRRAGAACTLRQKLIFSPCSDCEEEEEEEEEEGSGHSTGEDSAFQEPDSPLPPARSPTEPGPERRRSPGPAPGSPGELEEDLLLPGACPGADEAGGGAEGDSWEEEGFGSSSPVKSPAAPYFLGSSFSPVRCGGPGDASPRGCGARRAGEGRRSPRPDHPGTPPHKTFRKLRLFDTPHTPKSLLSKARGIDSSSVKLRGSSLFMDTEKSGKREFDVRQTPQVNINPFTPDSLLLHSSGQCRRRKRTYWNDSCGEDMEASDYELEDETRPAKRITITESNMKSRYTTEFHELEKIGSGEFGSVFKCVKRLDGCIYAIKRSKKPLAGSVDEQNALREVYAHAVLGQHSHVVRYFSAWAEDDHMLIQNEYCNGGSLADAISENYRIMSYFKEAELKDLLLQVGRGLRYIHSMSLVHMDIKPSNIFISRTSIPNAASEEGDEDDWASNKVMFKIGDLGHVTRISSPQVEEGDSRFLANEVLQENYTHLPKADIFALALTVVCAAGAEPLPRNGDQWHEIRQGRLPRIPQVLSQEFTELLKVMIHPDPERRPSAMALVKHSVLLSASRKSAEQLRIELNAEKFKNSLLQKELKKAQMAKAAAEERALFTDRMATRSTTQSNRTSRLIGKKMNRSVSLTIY
Calcium-dependent protein kinase 1 (Plasmodium falciparum), sequence (P62344 2-524 limits assumed): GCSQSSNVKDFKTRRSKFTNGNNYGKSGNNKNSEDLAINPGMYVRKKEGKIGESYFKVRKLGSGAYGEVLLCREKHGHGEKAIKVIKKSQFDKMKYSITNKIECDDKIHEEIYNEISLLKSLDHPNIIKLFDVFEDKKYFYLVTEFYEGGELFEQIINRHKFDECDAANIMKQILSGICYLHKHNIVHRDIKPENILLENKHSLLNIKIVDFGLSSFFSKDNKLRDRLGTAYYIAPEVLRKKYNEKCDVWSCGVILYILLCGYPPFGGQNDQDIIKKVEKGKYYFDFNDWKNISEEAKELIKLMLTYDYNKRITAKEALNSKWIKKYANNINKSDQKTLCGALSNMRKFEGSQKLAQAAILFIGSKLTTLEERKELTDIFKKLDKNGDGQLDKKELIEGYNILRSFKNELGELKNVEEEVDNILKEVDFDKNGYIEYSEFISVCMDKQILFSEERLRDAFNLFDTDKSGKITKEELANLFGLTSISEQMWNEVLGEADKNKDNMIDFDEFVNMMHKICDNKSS
Cyclin-dependent kinase 9 (Homo sapiens), sequence (P50750 whole entry): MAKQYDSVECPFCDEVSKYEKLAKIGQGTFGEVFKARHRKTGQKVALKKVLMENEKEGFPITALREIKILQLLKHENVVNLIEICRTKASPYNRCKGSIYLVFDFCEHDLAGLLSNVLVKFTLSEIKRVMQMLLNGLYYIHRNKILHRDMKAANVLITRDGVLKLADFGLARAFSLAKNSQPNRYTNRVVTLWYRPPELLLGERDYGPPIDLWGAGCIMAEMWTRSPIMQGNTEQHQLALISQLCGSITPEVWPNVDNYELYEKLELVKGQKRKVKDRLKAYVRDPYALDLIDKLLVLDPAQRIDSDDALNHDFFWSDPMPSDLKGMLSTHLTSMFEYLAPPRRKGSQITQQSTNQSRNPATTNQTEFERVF
Phosphatidylinositol 4,5-bisphosphate 3-kinase catalytic subunit alpha isoform (Homo sapiens), P42336 [Q546K], sequence (P42336 whole entry Q546K, canonical isoform): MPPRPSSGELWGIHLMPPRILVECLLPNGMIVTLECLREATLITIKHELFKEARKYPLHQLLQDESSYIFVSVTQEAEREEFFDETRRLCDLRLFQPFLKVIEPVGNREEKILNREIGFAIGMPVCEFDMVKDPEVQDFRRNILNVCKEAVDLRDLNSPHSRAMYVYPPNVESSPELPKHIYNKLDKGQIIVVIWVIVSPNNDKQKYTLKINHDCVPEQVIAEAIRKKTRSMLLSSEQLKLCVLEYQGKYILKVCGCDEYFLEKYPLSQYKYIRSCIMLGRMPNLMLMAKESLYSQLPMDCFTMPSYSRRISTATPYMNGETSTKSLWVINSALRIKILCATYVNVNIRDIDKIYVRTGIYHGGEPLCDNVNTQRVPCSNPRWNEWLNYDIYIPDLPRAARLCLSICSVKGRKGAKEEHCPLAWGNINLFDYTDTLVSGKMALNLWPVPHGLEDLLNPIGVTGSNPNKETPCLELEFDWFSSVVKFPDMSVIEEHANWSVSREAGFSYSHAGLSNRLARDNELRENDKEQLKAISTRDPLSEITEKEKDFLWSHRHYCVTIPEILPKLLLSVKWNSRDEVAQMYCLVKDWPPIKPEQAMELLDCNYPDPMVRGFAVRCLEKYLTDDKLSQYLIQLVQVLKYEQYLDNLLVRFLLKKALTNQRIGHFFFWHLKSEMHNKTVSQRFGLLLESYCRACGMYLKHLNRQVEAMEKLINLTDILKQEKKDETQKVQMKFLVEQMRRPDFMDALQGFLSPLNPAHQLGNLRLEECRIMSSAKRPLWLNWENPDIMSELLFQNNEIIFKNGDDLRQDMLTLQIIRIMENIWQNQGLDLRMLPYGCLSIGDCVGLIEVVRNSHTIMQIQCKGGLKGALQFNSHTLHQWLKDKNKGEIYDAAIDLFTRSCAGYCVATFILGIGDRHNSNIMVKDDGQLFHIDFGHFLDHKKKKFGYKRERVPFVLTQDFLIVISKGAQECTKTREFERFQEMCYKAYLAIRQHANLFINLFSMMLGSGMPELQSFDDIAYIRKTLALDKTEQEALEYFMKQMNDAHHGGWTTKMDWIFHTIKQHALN
Phosphatidylinositol 4,5-bisphosphate 3-kinase catalytic subunit alpha isoform (Homo sapiens), P42336 [E545A], sequence (P42336 whole entry E545A, canonical isoform): as the sequence (P42336 whole entry Q546K, canonical isoform) above, with E545A, K546Q counted along it

Cn1nc(C(=O)NCc2ccc(C(=O)O)cc2)cc1-c1ccc2[nH]ccc2c1 [BI 4395]
inactive: residual activity [1] 82% | residual activity [2] 87% | residual activity [3] 93% | residual activity [4] 100% | residual activity [5] 100% | residual activity [6] 100% | inhibition [7] 5.48% | residual activity [8] 85% | residual activity [9] 89% | residual activity [10] 92% | residual activity [11] 100% | residual activity [12] 100% | residual activity [13] 78% | residual activity [14] 63% | residual activity [15] 100% | residual activity [16] 96% | residual activity [17] 91% | residual activity [18] 78% | residual activity [19] 95% | residual activity [20] 100% | residual activity [21] 72% | residual activity [22] 100% | residual activity [23] 77% | residual activity [24] 81% | residual activity [25] 68% | residual activity [26] 83% | residual activity [27] 76% | residual activity [28] 100% | residual activity [29] 100% | residual activity [30] 86% | residual activity [31] 100% | residual activity [32] 59% | residual activity [33] 100% | inhibition [34] 10.3% | residual activity [35] 100% | residual activity [36] 90% | residual activity [37] 93% | residual activity [38] 73% | inhibition [39] -4.12%

CCOC(=O)c1cc2cc(-c3cc(C(=O)NCc4ccc(C(=O)O)cc4)nn3C)ccc2[nH]1 [BI 4394]
inactive: residual activity [1] 97% | residual activity [2] 100% | residual activity [3] 97% | residual activity [4] 100% | residual activity [5] 100% | residual activity [6] 100% | inhibition [7] 6.12% | residual activity [8] 91% | residual activity [9] 100% | residual activity [10] 94% | residual activity [11] 76% | residual activity [12] 97% | residual activity [13] 95% | residual activity [14] 78% | residual activity [15] 86% | residual activity [16] 100% | residual activity [17] 76% | residual activity [18] 79% | residual activity [19] 100% | residual activity [20] 100% | residual activity [21] 85% | residual activity [22] 92% | residual activity [23] 84% | residual activity [24] 100% | residual activity [25] 82% | residual activity [26] 85% | residual activity [27] 95% | residual activity [28] 100% | residual activity [29] 62% | residual activity [30] 98% | residual activity [31] 90% | residual activity [32] 100% | residual activity [33] 89% | inhibition [34] 6.37% | residual activity [35] 91% | residual activity [36] 100% | residual activity [37] 100% | residual activity [38] 100% | inhibition [39] 8.18%
